Reference: the NIST ThermoML archive (doi:10.1021/je049595u)
Numbers after ± are expanded uncertainties.

Tests used:
[1] = molar heat capacity at saturation pressure
[2] = Molar enthalpy of transition or fusion; conditions: Crystal

Cc1cccc2cccnc12 [8-methylquinoline]
Conditions	mass density [kg/m3]	molar heat capacity [J/K/mol]	vapor or sublimation pressure [kPa]
315.61 K, Liquid, Inclined piston gauge	–	–	0.0242 ± 0.001
324.98 K, Liquid, Inclined piston gauge	–	–	0.0466 ± 0.0011
334.99 K, Liquid, Inclined piston gauge	–	–	0.0905 ± 0.0011
344.98 K, Liquid, Inclined piston gauge	–	–	0.1674 ± 0.0012
354.98 K, Liquid, Inclined piston gauge	–	–	0.2975 ± 0.0013
364.98 K, Liquid, Inclined piston gauge	–	–	0.5091 ± 0.0016
374.98 K, Liquid, Inclined piston gauge	–	–	0.8418 ± 0.002
384.98 K, Liquid, Inclined piston gauge	–	–	1.35 ± 0.0027
393.84 K, Liquid, Twin ebulliometer	–	–	2.001 ± 0.01
394.97 K, Liquid, Inclined piston gauge	–	–	2.102 ± 0.0036
400.6 K, Liquid, Twin ebulliometer	–	–	2.665 ± 0.01
404.97 K, Liquid, Inclined piston gauge	–	–	3.19 ± 0.0047
410.7 K, Liquid, Twin ebulliometer	–	–	4.004 ± 0.011
418.2 K, Liquid, Twin ebulliometer	–	–	5.336 ± 0.011
429.38 K, Liquid, Twin ebulliometer	–	–	8.002 ± 0.012
437.77 K, Liquid, Twin ebulliometer	–	–	10.67 ± 0.013
444.5 K, Liquid, Twin ebulliometer	–	–	13.31 ± 0.014
451.61 K, Liquid, Twin ebulliometer	–	–	16.67 ± 0.015
457.46 K, Liquid, Twin ebulliometer	–	–	19.93 ± 0.017
465.16 K, Liquid, Twin ebulliometer	–	–	25.02 ± 0.019
465.17 K, Liquid, Twin ebulliometer	–	–	25.02 ± 0.019
472.94 K, Liquid, Twin ebulliometer	–	–	31.18 ± 0.021
480.74 K, Liquid, Twin ebulliometer	–	–	38.57 ± 0.024
488.6 K, Liquid, Twin ebulliometer	–	–	47.36 ± 0.028
496.51 K, Liquid, Twin ebulliometer	–	–	57.8 ± 0.032
504.49 K, Liquid, Twin ebulliometer	–	–	70.12 ± 0.037
512.5 K, Liquid, Twin ebulliometer	–	–	84.53 ± 0.043
520.56 K, Liquid, Twin ebulliometer	–	–	101.31 ± 0.049
528.68 K, Liquid, Twin ebulliometer	–	–	120.8 ± 0.06
536.85 K, Liquid, Twin ebulliometer	–	–	143.23 ± 0.06
545.06 K, Liquid, Twin ebulliometer	–	–	169 ± 0.07
553.32 K, Liquid, Twin ebulliometer	–	–	198.45 ± 0.08
553.33 K, Liquid, Twin ebulliometer	–	–	198.45 ± 0.08
561.65 K, Liquid, Twin ebulliometer	–	–	232 ± 0.09
570.01 K, Liquid, Twin ebulliometer	–	–	270 ± 0.1
769.9 K, Gas, Measured as part of TC determination by DSC	160.5 ± 16	–	–
775.8 K, Liquid, Measured as part of TC determination by DSC	444.6 ± 44	–	–
784 K, Gas, Measured as part of TC determination by DSC	244.7 ± 25	–	–
785.1 K, Liquid, Measured as part of TC determination by DSC	349.8 ± 35	–	–
786 K, Gas, Measured as part of TC determination by DSC	318.7 ± 32	–	–
[1], 460 K, Liquid	–	289.36 ± 2.9	–
[1], 480 K, Liquid	–	297.35 ± 3	–
[1], 500 K, Liquid	–	305.31 ± 3.1	–
[1], 520 K, Liquid	–	313.17 ± 3.1	–
[1], 540 K, Liquid	–	320.92 ± 3.2	–
[1], 560 K, Liquid	–	328.51 ± 3.3	–
[1], 580 K, Liquid	–	335.9 ± 3.4	–
[1], 600 K, Liquid	–	343.02 ± 3.4	–
[1], 620 K, Liquid	–	349.87 ± 3.5	–
[1], 640 K, Liquid	–	356.47 ± 3.6	–
[1], 660 K, Liquid	–	362.89 ± 3.6	–
[1], 680 K, Liquid	–	369.38 ± 3.7	–
[1], 700 K, Liquid	–	376.44 ± 3.8	–

Conditions	Critical temperature, Liquid [K]	mass density, 323.14 K [kg/m3]	mass density, 348.13 K [kg/m3]	mass density, 373.12 K [kg/m3]	mass density, 398.12 K [kg/m3]	mass density, 423.11 K [kg/m3]	mass density, 448.11 K [kg/m3]	mass density, 473.11 K [kg/m3]	mass density, 498.11 K [kg/m3]
DTA	787 ± 2	–	–	–	–	–	–	–	–
Liquid	–	1049.3 ± 0.5	1029 ± 0.5	1009.5 ± 0.4	988.5 ± 0.4	967.8 ± 0.5	947.5 ± 0.6	926.6 ± 0.8	904 ± 1

Conditions	Molar enthalpy of transition or fusion [kcal/mol]	Triple point temperature [K]
Crystal	–	246.94 ± 0.05
[2]	2.565 ± 0.00311	–

molar heat capacity [J/K/mol], [1], Vacuum adiabatic calorimetry
Conditions	Crystal	Liquid
5 K	0.45 ± 0.02	–
6.105 K	0.81 ± 0.02	–
7.027 K	1.26 ± 0.02	–
8.004 K	1.86 ± 0.03	–
9.004 K	2.64 ± 0.03	–
10 K	3.53 ± 0.04	–
10.06 K	3.58 ± 0.04	–
11.21 K	4.73 ± 0.05	–
12.47 K	6.05 ± 0.06	–
13.87 K	7.66 ± 0.07	–
15.42 K	9.47 ± 0.07	–
17.14 K	11.51 ± 0.083	–
19.04 K	13.71 ± 0.091	–
20 K	14.8 ± 0.091	–
21.13 K	16.07 ± 0.1	–
23.44 K	18.64 ± 0.1	–
25.98 K	21.32 ± 0.1	–
28.81 K	24.19 ± 0.1	–
30 K	25.37 ± 0.091	–
31.94 K	27.23 ± 0.1	–
35.44 K	30.44 ± 0.1	–
39.36 K	33.85 ± 0.11	–
40 K	34.39 ± 0.11	–
43.73 K	37.46 ± 0.12	–
48.59 K	41.21 ± 0.12	–
50 K	42.28 ± 0.12	–
52.43 K	44.08 ± 0.13	–
53.97 K	45.21 ± 0.13	–
57.17 K	47.47 ± 0.13	–
59.94 K	49.35 ± 0.14	–
60 K	49.4 ± 0.14	–
62.72 K	51.23 ± 0.14	–
69 K	55.27 ± 0.15	–
70 K	55.87 ± 0.15	–
75.99 K	59.46 ± 0.16	–
80 K	61.81 ± 0.17	–
83.66 K	63.9 ± 0.17	–
86.44 K	65.46 ± 0.17	–
90 K	67.47 ± 0.27	–
91.89 K	68.5 ± 0.27	–
94.09 K	69.68 ± 0.27	–
100 K	72.87 ± 0.27	–
100.75 K	73.28 ± 0.27	–
103.06 K	74.5 ± 0.27	–
112.71 K	79.57 ± 0.28	–
120 K	83.32 ± 0.28	–
123.65 K	85.25 ± 0.28	–
135.63 K	91.49 ± 0.29	–
140 K	93.7 ± 0.29	–
147.53 K	97.64 ± 0.3	–
160 K	104.11 ± 0.31	–
160.44 K	104.42 ± 0.31	–
170 K	–	184.91 ± 0.38
174.36 K	111.83 ± 0.32	–
175.64 K	112.44 ± 0.32	–
175.79 K	–	185.73 ± 0.38
180 K	114.69 ± 0.32	186.36 ± 0.38
181.22 K	–	186.55 ± 0.38
186.72 K	–	187.58 ± 0.39
186.91 K	118.52 ± 0.32	–
188.79 K	119.55 ± 0.32	–
199.75 K	125.65 ± 0.32	–
200 K	125.52 ± 0.32	190.48 ± 0.39
203.2 K	127.63 ± 0.32	–
212.46 K	132.96 ± 0.33	–
215.19 K	134.54 ± 0.33	–
220 K	136.62 ± 0.34	195.81 ± 0.4
224.46 K	140.5 ± 0.34	–
225.29 K	140.97 ± 0.34	–
232.54 K	–	199.61 ± 0.4
235.37 K	150.91 ± 0.35	–
238.7 K	–	201.71 ± 0.4
240 K	147.98 ± 0.35	202.12 ± 0.4
245.88 K	–	204 ± 0.41
246.94 K	151.99 ± 0.35	204.38 ± 0.41
253.58 K	–	206.7 ± 0.41
253.72 K	–	206.81 ± 0.41
254.07 K	–	206.89 ± 0.41
256.36 K	–	207.75 ± 0.41
257.67 K	–	208.16 ± 0.41
260 K	–	208.99 ± 0.41
265.24 K	–	210.84 ± 0.41
269.69 K	–	212.52 ± 0.42
280 K	–	216.4 ± 0.42
282.82 K	–	217.48 ± 0.42
296.93 K	–	222.97 ± 0.42
298.15 K	–	223.45 ± 0.42
300 K	–	224.18 ± 0.42
310.97 K	–	228.56 ± 0.43
312.23 K	–	229.08 ± 0.43
320 K	–	232.22 ± 0.43
326.77 K	–	234.98 ± 0.43
340 K	–	240.4 ± 0.44
341.89 K	–	241.17 ± 0.44
357.58 K	–	247.68 ± 0.45
360 K	–	248.69 ± 0.45
373.8 K	–	254.38 ± 0.46
380 K	–	256.96 ± 0.46
389.63 K	–	260.93 ± 0.46
400 K	–	265.18 ± 0.47
405.69 K	–	267.5 ± 0.47
420 K	–	273.33 ± 0.47
422.45 K	–	274.32 ± 0.47
437.11 K	–	280.26 ± 0.48
440 K	–	281.4 ± 0.48
